Measured values: patent US11045473B2, “Compositions and methods for therapy of prostate cancer using drug combinations to target polyamine biosynthesis and related pathways” (Health Research, Inc., priority 2015, dated 2021)
Entries after “also recorded” stand apart in the source; their conditions may differ.

What was measured:
[1] = tested on: LNCaP xenograft; test: LNCaP xenograft growth in nude mice, MTDIA in the drinking water; assay type: in vivo
Description: Human cell line xenografts with pharmacological treatment—1×10^6 wild type LNCaP cells were subcutaneously injected onto the flank of pelleted nude mice. At time of injection animals were randomly assigned to one of the following three groups; control, 9 or 21 mg/kg MTDIA in the drinking water with 20 mice in each group. Tumor measurements were assessed and recorded twice a week. Animals were sacrificed once tumors reached 2 cm3 or at the end point of the experiment (91 days).

[2] = tested on: head and neck squamous carcinoma cell lines; conditions: 12 day treatment, 20 uM MTA added to the media; cited from earlier work
[3] = tested on: MTAP; test: Western blot of MTAP protein expression in LNCaP; assay type: cell-based, human; conditions: 4 day IC25 and IC50 of MTDIA, presence or absence of MTA
Description: (§1) FIG. 9. (A) Proliferation curves for LNCaP, DU145 and PC3 treated with MTDIA in the absence or presence of 10 or 20 uM MTA, for 4 and (B) 8 days. […] (C) Western blot analysis of FaDu, LNCaP, and DU145 cells after indicated treatments of MTA (0, 10, or 20 uM) or the respective 4 day IC25 and IC50 dose of MTDIA for each cell line plus or minus MTA immunoblotted with antibodies against MTAP, SMS, and SRM, with B-actin as a loading control. Western blot images are representative of biological triplicates.
(§2) Western Blotting—Whole cell extracts were prepared in RIPA buffer (150 mM NaCl, 1.0% NP-40, 0.5% deoxycholate, 0.1% SDS, 50 mM Tris-HCl pH 8.0, 5 mM EDTA and 0.5 mM PMSF) supplemented with 1× proteinase inhibitor. Protein concentrations were determined by Bradford Assay (Thermo Scientific, Cat #1856209). […] MTAP for Westerns was purchased from Proteintech™ (Cat #11475-1-AP. SRM and SMS were purchased from Abcam® (Cat #ab111884 and ab156879). B-actin antibody for Westerns was purchased from Sigma-Aldrich (Cat #A5441) and GAPDH was from Santa Cruz Biotecnology Inc. (Cat #sc-25778). Films were scanned using the Biorad ChemiDoc XRS, and band intensities were calculated using Image Lab™. Intensity values were normalized to B-actin loading control band intensities and made relative to control treatment conditions.

[4] = tested on: LNCaP; test: Proliferation / IC50 by trypan blue cell counts, LNCaP; assay type: cell-based, human; conditions: for effect on cell growth: 8 and 12 days; for IC50: Homo sapiens
Description: A transition state analog inhibitor of MTAP, Methylthio-DaDMe-Immucillin-A (MTDIA) was previously described and shown to be effective following a 6 or 12 day treatment at ˜10 and 100 nM MTDIA when 20 uM MTA was added to the media in both lung adenocarcinoma cell lines and head and neck squamous carcinoma cell lines, respectively [Basu I, et al. J Biol Chem. 2007; 282:21477-21486; Basu I, et al. J Biol Chem. 2011; 286:4902-491]. 32]. We synthesized MTDIA and the analytical data on the synthesized compound are shown in FIGS. 8A and 8B with the scheme used for synthesis shown in FIG. 6. […] In all three cell lines, the proliferation curves after 12 days of treatment show an IC50 of MTDIA>1 mM in the absence of MTA (FIG. 5B), but in the 10-100 nM range with the addition of 10 or 20 μM MTA. […] Nanomolar range IC50 values are highlighted.
IC50—The MTAP inhibitor (3R,4S)-1-[(9-Deaza-adenin-9-yl)methyl]-3-hydroxy-4-(methylthiomethyl)-pyrrolidine, or MT-DADMe-Immucillin-A (MTDIA) was synthesized following the synthesis scheme shown in FIG. 6 and based on a known approach. Cells were seeded at 125,000 cells/well (PC-3, DU145, LNCaP) in triplicate in 2 mLs of RPMI medium supplemented with 10% fetal bovine serum, and 1% penicillin streptomycin. After 24 hours the MTDIA and/or MTA was added at the indicated concentrations. Both medium and drug were refreshed every 48 hours. Every 96 hours the cells were trypsinized, ˜2% of cells were removed and counted by trypan blue exclusion and the rest were replated into a larger vessel.

[5] = tested on: MTAP; test: Western blot of MTAP protein expression in FaDu; assay type: cell-based, human; conditions: 4 day IC25 and IC50 of MTDIA, presence or absence of MTA
Description: as §1, §2

[6] = tested on: spermine synthase; test: Western blot of spermine synthase in FaDu; assay type: cell-based, human; conditions: treatment with MTDIA
Description: FIG. 9. (A) Proliferation curves for LNCaP, DU145 and PC3 treated with MTDIA in the absence or presence of 10 or 20 uM MTA, for 4 and (B) 8 days. Results of biological triplicates are shown with absolute IC50s indicated for each condition. (C) Western blot analysis of FaDu, LNCaP, and DU145 cells after indicated treatments of MTA (0, 10, or 20 uM) or the respective 4 day IC25 and IC50 dose of MTDIA for each cell line plus or minus MTA immunoblotted with antibodies against MTAP, SMS, and SRM, with B-actin as a loading control. Western blot images are representative of biological triplicates. Band intensity values normalized to B-actin relative to control conditions are indicated below the respective band.
Western Blotting—Whole cell extracts were prepared in RIPA buffer (150 mM NaCl, 1.0% NP-40, 0.5% deoxycholate, 0.1% SDS, 50 mM Tris-HCl pH 8.0, 5 mM EDTA and 0.5 mM PMSF) supplemented with 1× proteinase inhibitor. Protein concentrations were determined by Bradford Assay (Thermo Scientific, Cat #1856209). Samples were resolved on polyacrylamide gels and transferred onto PVDF membranes (Biorad, Cat #162-0177). Blots were incubated with primary antibodies overnight at 4° and with secondaries for 1.5 hours at room temperature. Signals were visualized using Pierce ECL western blotting substrate (Thermo Scientific, Cat #32209) and exposed to film. […]

For CSC[C@H]1CN(Cc2c[nH]c3c(N)ncnc23)C[C@@H]1O [MTDIA, (3R,4S)-1-[(9-Deaza-adenin-9-yl)methyl]-3-hydroxy-4-(methylthiomethyl)-pyrrolidine], the xenograft growth ([1]; 21 mg/kg MTDIA daily in the drinking water, vs untreated control and 9 mg/kg dose) is given as “significant (p<0.001) block in xenograft growth; also recorded: dramatically blocked LNCaP xenograft growth”, the “xenograft growth after drug removal” value ([1]; 21 mg/kg group, drug removed at day 61, carried out to day 91) is given as “significant block in xenograft growth was maintained” and the effective concentration [2] is given as roughly 100 nM. The MTAP expression [3] was “upregulate expression of MTAP”, the “effect on cell growth” value ([4]; 100 nM MTDIA, with 20 μM MTA) was “dramatic effect on cell growth” and the “effect on cell growth” value ([4]; 100 nM MTDIA, without MTA) was “little to no effect”. For the same molecule, the effect on growth ([4]; 100 nM MTDIA, 4 days, with or without 20 μM MTA) was “limited effects on growth”, the blocking cell growth ([4]; 6 days, low concentrations of MTDIA) was “no effect at blocking cell growth” and the IC50 ([4]; 96 h, 4 days, 0 μM MTA) was greater than 1000 µM. For the same molecule, the IC50 ([4]; 96 h, 4 days, 10 μM MTA) was greater than 1000 µM, the IC50 ([4]; 96 h, 4 days, 20 μM MTA) was 200 µM and the IC50 ([4]; 192 h, 8 days, 0 μM MTA) was greater than 1000 µM. For the same molecule, the IC50 ([4]; 192 h, 8 days, 10 μM MTA) was 1 µM, the IC50 ([4]; 192 h, 8 days, 20 μM MTA) was 0.085 µM and the IC50 ([4]; 288 h, 12 days, 0 μM MTA) was greater than 1000 µM. It also gave an IC50 ([4]; 288 h, 12 days, 10 μM MTA) of 0.011 µM, an IC50 ([4]; 288 h, 12 days, 20 μM MTA) of 0.014 µM and an IC50 ([4]; 288 h, 12 days, with 10 or 20 μM MTA) of 0.01 to 0.1 µM. The MTAP expression [5] was “downregulates MTAP” and the spermine synthase expression [6] was “downregulated”.
